Target: Hepatocyte growth factor receptor (Homo sapiens, UniProt P08581)
Assay: Inhibition of c-Met (unknown origin) using poly (Glu, Tyr) 4:1 after 30 mins by HTRF assay

SMILES | IC50
COc1cc2c(Oc3ccc(N=Cc4c(O)n(-c5ccc(F)cc5F)c(=O)[nH]c4=O)cc3F)ccnc2cc1OCCCN1CCCC1 | 12 nM
COc1cc2c(Oc3ccc(N=Cc4c(O)n(-c5ccc(F)cc5)c(=O)[nH]c4=O)cc3F)ccnc2cc1OCCCN1CCCC1 | 2.7 nM
COc1cc2c(Oc3ccc(N=Cc4c(O)n(-c5ccc(C)cc5)c(=O)[nH]c4=O)cc3F)ccnc2cc1OCCCN1CCN(C)CC1 | 2.7 nM
COc1cc2c(Oc3ccc(N=Cc4c(O)n(-c5ccc(F)cc5F)c(=O)[nH]c4=O)cc3F)ccnc2cc1OCCCN1CCOCC1 | 12 nM

From BindingDB's records for doi:10.1016/j.bmc.2014.01.014 (Shenyang Pharmaceutical University, 2014)
